For series [1], the target named is Beta-2 adrenergic receptor (Homo sapiens, UniProt P07550). Briefly: DRUGMATRIX: Adrenergic beta2 radioligand binding (ligand: [3H] CGP-12177). Format: cell membranes, Membrane. Conditions: cho; Not Active = under 50% inhibition at 10 µM.
A short description of series [2]: DRUGMATRIX: Atrial Natriuretic Factor (ANF) radioligand binding (ligand: [125I] ANF (rat)). The series is classed as cell membranes, Cavia porcellus, Dunkin-Hartley, Adrenal gland, Membrane. Conditions: Not Active = under 50% inhibition at 10 µM.
In series [3] the target is T1, 5-hydroxytryptamine receptor 2C (Homo sapiens, UniProt P28335).
T1 sequence (P28335 whole entry): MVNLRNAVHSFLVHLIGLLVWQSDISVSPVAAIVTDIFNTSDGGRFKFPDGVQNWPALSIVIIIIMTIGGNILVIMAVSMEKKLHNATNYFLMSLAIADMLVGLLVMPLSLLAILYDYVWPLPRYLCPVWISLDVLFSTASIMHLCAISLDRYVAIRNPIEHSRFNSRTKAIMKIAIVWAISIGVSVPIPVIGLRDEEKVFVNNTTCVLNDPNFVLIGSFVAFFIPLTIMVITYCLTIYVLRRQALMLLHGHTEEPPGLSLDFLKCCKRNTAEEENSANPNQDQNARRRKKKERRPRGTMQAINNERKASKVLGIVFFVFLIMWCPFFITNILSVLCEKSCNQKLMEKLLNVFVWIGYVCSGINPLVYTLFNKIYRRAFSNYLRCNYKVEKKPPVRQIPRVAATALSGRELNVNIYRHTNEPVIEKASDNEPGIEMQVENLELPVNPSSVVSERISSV
Description: DRUGMATRIX: Serotonin (5-Hydroxytryptamine) 5-HT2C radioligand binding (ligand: [3H] Mesulergine). The series is classed as cell membranes, CHO-K1, Membrane. Conditions: Not Active = under 50% inhibition at 10 µM.

Series [4] is described as follows: DRUGMATRIX: Tumor Necrosis Factor (TNF), Non-Selective radioligand binding (ligand: [125I] TNF-alpha). The series is classed as cell membranes, Membrane. Particulars: u-937; Not Active = under 50% inhibition at 10 µM.
For series [5], the target named is Prostaglandin G/H synthase 1 (Homo sapiens, UniProt P23219). Description: biochemical. Conditions: platelet. The series is classed as tissue-based, Platelet.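 Further: inhibition of COX-1 enzyme activity, with arachidonic acid supplied as substrate; in other assays of this panel Not Active means under 50% inhibition at 10 µM.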
Chain of Prostaglandin G/H synthase 1 (P23219 whole entry): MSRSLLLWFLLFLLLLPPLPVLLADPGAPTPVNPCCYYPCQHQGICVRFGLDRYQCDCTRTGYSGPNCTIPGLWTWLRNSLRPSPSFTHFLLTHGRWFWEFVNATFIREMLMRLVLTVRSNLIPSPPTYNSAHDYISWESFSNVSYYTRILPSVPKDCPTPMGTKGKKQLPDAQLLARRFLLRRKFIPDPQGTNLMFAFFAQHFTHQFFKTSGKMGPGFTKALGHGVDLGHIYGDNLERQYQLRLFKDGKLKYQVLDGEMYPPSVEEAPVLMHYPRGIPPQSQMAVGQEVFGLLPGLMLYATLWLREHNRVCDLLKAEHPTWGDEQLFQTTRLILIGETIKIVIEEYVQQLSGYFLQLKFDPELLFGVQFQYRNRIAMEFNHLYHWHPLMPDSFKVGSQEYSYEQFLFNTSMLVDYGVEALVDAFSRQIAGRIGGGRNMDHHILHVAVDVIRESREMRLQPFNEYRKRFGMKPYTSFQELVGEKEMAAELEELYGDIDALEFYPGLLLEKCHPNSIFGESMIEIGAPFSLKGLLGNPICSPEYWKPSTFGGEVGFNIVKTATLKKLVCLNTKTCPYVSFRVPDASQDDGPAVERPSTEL
The nature of series [6]: DRUGMATRIX: Glutamate, NMDA, Agonism radioligand binding (ligand: [3H] CGP-39653). Particulars: Not Active = under 50% inhibition at 10 µM. The series is classed as cell membranes, Rattus norvegicus, Wistar, Cerebral cortex, Membrane.
Series [7] can be described thus: DRUGMATRIX: Nicotinic Acetylcholine radioligand binding (ligand: [125I] Epibatidine). Format: cell membranes, Membrane. Conditions: imr-32; Not Active = under 50% inhibition at 10 µM.
Series [8] deals with Platelet-activating factor receptor (Homo sapiens, UniProt P25105). Briefly: biochemical. Particulars: platelet. Format: tissue-based.
Chain of Platelet-activating factor receptor (P25105 whole entry): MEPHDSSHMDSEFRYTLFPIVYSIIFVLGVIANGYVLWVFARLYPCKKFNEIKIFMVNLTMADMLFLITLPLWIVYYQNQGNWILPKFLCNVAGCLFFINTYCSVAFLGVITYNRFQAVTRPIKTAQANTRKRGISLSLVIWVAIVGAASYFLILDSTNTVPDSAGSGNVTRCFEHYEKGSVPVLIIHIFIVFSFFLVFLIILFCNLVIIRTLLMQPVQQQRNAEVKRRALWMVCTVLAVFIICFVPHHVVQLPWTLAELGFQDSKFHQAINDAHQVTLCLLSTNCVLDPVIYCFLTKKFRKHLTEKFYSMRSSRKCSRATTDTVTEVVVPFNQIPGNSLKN
Series [9] deals with T2, Angiotensin-converting enzyme (Oryctolagus cuniculus, UniProt P12822).
T2 sequence (P12822 whole entry): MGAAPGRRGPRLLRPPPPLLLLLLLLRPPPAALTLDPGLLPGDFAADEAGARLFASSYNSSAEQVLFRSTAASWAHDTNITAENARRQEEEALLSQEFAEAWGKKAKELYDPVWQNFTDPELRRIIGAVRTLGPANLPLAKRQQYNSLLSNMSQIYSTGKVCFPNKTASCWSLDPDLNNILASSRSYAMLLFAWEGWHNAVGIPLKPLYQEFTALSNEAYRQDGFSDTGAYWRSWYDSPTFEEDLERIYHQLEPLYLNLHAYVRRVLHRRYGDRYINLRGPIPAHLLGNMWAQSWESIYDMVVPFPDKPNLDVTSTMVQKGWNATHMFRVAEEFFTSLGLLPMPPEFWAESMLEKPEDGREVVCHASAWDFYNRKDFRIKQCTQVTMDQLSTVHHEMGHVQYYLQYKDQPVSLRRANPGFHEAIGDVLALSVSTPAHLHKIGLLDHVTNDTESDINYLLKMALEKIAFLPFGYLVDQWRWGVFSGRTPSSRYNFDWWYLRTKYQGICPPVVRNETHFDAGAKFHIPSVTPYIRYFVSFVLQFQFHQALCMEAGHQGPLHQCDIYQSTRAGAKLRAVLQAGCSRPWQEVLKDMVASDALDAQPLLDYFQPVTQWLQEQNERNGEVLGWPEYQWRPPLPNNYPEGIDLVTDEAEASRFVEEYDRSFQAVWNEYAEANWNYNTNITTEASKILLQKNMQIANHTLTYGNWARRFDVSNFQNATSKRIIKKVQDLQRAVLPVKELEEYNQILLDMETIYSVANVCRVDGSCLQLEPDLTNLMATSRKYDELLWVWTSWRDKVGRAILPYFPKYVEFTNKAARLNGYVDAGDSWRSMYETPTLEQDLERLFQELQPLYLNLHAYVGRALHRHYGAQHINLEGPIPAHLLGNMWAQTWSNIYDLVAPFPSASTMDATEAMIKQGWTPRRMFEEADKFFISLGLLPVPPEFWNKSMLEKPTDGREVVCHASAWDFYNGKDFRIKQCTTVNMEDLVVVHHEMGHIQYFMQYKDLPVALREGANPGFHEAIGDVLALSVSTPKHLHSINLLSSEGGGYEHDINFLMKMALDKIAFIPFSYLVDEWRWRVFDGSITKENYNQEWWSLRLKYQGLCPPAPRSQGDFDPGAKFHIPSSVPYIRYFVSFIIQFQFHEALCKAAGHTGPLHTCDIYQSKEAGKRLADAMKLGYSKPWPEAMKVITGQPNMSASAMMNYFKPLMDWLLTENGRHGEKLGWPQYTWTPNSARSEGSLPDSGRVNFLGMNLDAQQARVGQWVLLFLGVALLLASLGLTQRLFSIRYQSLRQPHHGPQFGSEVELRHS
Description: biochemical. Format: tissue-based, Lung.

Series [10] addresses T3, Caspase-1 (Homo sapiens, UniProt P29466).
T3 sequence (P29466 whole entry): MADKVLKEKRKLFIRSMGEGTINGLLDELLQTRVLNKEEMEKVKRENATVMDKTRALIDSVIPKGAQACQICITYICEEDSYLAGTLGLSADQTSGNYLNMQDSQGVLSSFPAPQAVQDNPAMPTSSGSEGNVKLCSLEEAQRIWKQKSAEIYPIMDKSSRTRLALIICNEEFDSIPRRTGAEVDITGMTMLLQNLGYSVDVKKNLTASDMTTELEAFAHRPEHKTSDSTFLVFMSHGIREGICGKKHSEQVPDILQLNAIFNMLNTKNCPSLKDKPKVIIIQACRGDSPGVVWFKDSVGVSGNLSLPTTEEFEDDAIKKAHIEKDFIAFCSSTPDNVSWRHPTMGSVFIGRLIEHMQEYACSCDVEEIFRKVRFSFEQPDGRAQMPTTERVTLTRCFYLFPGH
Further details: species or system Escherichia coli.

Series [11] addresses Protein kinase C alpha type (Homo sapiens, UniProt P17252). Format: cell-based. Conditions: sf9.
Series [12] concerns the target Cytochrome P450 3A4 (Homo sapiens, UniProt P08684). Conditions: bti-tn-5b1-4. Further: in other assays of this panel Not Active means under 50% inhibition at 10 µM.

SMILES strings stand for the structures.

Chain of Cytochrome P450 3A4 (P08684 whole entry): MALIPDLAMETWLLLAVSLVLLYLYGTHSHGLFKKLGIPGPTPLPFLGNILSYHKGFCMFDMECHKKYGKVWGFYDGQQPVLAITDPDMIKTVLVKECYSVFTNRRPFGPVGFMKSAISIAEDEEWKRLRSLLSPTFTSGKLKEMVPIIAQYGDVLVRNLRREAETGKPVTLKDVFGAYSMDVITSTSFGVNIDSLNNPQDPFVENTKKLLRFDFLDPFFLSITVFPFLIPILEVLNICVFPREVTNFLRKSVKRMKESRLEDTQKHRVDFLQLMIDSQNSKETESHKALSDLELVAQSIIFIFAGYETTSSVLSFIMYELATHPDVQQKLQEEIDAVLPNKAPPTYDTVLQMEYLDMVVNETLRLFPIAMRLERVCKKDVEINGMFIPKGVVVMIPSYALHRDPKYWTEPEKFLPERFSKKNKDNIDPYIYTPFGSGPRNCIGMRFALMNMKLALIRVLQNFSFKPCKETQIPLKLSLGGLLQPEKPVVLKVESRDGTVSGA
Chain of Beta-2 adrenergic receptor (P07550 whole entry): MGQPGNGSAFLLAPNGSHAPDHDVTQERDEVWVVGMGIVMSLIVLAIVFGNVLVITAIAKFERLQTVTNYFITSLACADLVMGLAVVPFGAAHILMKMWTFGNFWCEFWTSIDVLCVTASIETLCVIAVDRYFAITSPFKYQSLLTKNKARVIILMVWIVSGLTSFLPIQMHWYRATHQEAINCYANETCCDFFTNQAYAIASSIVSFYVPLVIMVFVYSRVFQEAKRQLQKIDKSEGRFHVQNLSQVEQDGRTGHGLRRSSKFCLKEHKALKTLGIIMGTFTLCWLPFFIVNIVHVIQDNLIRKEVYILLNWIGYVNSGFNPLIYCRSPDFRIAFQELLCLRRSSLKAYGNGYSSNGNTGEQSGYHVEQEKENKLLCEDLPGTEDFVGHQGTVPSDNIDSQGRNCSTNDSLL

Regarding `Cc1ccccc1N1CCN(CCc2nnc3n2CCCC3)CC1` [DAPIPRAZOLE], the IC50 entry is “Not Active” in [1]; “Not Active” in series [2]; 625 nM in series [3] (read-out: IC50); “Not Active” in [4]; “Not Active” in series [5]; “Not Active” in [6]. Moreover, the concentration for half-maximal inhibition (IC50) entry in [7], in series [8], in [9], in series [10], in series [11] and in series [12] was “Not Active” each time. Moreover, the Ki result in series [2] was “Not Active”; in series [3] (read-out: Ki), 327 nM; in series [4], “Not Active”; in series [6], “Not Active”; in series [7] it was “Not Active”; in [12], “Not Active”.
`CC1=Nc2ccc(Cl)cc2S(=O)(=O)N1` [DIAZOXIDE]: the IC50 result in series [1], in [2], in series [3] (cho-k1), in series [4], in [5] and in series [6] was “Not Active” in each case. Besides, the IC50 result in series [7], in series [8], in series [9], in series [10], in [11] and in [12] was “Not Active” in each case. The Ki result in [2], in [4], in series [6], in series [7] and in series [12] was “Not Active” each time.
Consider `CC(=O)OCC(=O)[C@@]1(OC(C)=O)[C@@H](C)C[C@H]2[C@@H]3C[C@H](F)C4=CC(=O)C=C[C@]4(C)[C@@]3(F)[C@@H](O)C[C@@]21C` [DIFLORASONE DIACETATE], for which the IC50 entry in series [1], in series [2], in [3] (cho-k1), in series [4], in [5] and in series [6] was “Not Active” in each case. In addition, the IC50 entry in [7], in series [8], in [9], in [10], in series [11] and in [12] was “Not Active” in each case. The Ki entry in series [2], in [4], in [6], in [7] and in series [12] was “Not Active” each time.
Regarding `CCc1ccc(C(=O)C(C)CN2CCCCC2)cc1` (stereo not drawn) [EPERISONE], the 50% inhibitory concentration (IC50) entry in series [1], in [2], in series [3] (cho-k1), in series [4], in series [5] and in series [6] was “Not Active” in each case. Also, the IC50 entry in series [7], in [8], in [9], in series [10], in series [11] and in [12] was “Not Active” throughout. Moreover, the Ki entry in series [2], in series [4], in series [6], in series [7] and in [12] was “Not Active” throughout.
Turning to `C=C1CC[C@H](O)C/C1=C/C=C1\CCC[C@]2(C)[C@@H]([C@H](C)/C=C/[C@H](C)C(C)C)CC[C@@H]12` [ERGOCALCIFEROL], the IC50 entry in series [1], in [2], in series [3] (cho-k1), in series [4], in series [5] and in series [6] was “Not Active” throughout. Besides, the IC50 result in series [7], in series [8], in series [9], in series [10], in [11] and in [12] was “Not Active” throughout. For the same molecule, the Ki entry in [2], in series [4], in series [6], in series [7] and in series [12] was “Not Active” each time.
For `Cc1c(-c2ccccc2)oc2c(C(=O)OCCN3CCCCC3)cccc2c1=O` [FLAVOXATE], the IC50 result in series [1], in series [2], in [3] (cho-k1), in [4], in [5] and in series [6] was “Not Active” in each case. Further, the IC50 entry in series [7], in series [8], in [9], in series [10], in [11] and in series [12] was “Not Active” in each case. Further, the Ki entry in series [2], in series [4], in series [6], in series [7] and in series [12] was “Not Active” in each case.

The values are drawn from ChEMBL document CHEMBL1909046, “DrugMatrix in vitro pharmacology data”.
